Patent US20230257372A1 (CHONG KUN DANG PHARMACEUTICAL CORP., priority 2020, published 2023)

Assays:
human recombinant HDAC1 = target: T1, human recombinant HDAC1 (Homo sapiens, UniProt Q13547); assay: HDAC1 enzyme activity inhibition (HDAC Fluorimetric Drug Discovery Kit); format: biochemical; conditions: human recombinant HDAC1; IC50 calculated with GraphPad Prism; read-out: HDAC1
T1 construct: purchased Enzo Life Science, Inc. BML-SE456
Procedure, shortened: (§1)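 Fluorimetric deacetylase read-out. 5-fold compound dilutions; […] enzyme, 10 μM substrate; 30° C, 60 min; developer 30 min.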

human recombinant HDAC6 = target: T2, human recombinant HDAC6 (Homo sapiens, UniProt Q9UBN7); assay: HDAC6 enzyme activity inhibition (HDAC Fluorimetric Drug Discovery Kit); format: biochemical; conditions: for HDAC6 selectivity (fold): HDAC1 IC50 / HDAC6 IC50; for IC50: human recombinant HDAC6, IC50 calculated with GraphPad Prism
T2 construct: purchased Calbiochem Inc. 382180
T2 sequence (Q9UBN7 1-1215): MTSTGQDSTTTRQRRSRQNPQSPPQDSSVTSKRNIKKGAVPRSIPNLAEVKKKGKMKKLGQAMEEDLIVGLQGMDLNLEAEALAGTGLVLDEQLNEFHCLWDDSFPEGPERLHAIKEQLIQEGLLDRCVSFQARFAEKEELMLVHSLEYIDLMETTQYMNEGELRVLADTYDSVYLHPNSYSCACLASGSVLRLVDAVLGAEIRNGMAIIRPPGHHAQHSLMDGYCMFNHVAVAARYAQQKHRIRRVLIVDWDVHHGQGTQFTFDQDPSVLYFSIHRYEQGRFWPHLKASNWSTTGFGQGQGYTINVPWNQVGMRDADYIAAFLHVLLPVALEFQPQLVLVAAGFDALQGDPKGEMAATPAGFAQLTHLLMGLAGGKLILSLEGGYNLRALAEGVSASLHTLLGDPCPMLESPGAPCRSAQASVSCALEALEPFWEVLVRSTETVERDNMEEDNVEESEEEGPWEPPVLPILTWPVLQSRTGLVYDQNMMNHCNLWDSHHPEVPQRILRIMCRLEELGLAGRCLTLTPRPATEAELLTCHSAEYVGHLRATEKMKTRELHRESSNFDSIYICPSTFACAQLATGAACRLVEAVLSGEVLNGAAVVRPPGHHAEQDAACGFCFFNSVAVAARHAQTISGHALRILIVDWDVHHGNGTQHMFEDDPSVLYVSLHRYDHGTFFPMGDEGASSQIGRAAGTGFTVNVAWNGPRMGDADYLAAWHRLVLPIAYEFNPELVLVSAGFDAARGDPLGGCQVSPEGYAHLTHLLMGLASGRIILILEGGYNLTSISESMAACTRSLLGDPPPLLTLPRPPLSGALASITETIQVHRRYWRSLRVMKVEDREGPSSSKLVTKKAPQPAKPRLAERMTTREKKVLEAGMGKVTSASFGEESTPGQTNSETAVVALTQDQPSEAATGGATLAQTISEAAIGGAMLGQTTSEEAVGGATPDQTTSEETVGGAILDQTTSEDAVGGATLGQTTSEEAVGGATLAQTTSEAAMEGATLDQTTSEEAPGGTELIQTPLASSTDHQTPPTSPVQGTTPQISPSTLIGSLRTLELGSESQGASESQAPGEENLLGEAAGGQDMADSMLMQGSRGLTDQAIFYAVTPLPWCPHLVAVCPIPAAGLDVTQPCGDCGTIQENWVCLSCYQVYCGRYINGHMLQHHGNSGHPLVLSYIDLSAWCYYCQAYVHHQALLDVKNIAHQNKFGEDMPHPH
Procedure, shortened: as §1

T1 sequence (Q13547 whole entry): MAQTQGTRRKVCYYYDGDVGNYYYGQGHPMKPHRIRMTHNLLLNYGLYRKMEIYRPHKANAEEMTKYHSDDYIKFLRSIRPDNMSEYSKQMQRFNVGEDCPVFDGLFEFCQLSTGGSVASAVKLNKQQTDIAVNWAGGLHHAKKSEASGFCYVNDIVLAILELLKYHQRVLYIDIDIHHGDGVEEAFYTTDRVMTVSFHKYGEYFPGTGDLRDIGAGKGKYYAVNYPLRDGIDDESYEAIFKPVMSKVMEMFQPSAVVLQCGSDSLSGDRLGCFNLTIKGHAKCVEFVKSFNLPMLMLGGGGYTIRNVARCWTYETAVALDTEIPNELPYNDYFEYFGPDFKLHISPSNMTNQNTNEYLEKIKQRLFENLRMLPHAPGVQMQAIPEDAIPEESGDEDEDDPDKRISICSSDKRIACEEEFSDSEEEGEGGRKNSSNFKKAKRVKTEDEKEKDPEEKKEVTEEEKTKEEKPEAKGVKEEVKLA

| Structure (SMILES) | IC50 (human recombinant HDAC1) | HDAC6 selectivity (fold) (human recombinant HDAC6) | IC50 (human recombinant HDAC6) |
| --- | --- | --- | --- |
| CC(=O)N1CCC(Cc2cn(Cc3ccc(-c4nnc(C(F)F)o4)cn3)nn2)CC1 [Compound 4015, 1-(4-((1-((5-(5-(difluoromethyl)-1,3,4-oxadiazol-2-yl)pyridin-2-yl)methyl)-1H-1,2,3-triazol-4-yl)methyl)piperidin-1-yl)ethan-1-one] | > 50000 nM | 106 fold | 471 nM |
| FC(F)c1nnc(-c2ccc(Cn3cc([C@@H]4CCCN4C4COC4)nn3)nc2)o1 [Compound 4026, (S)-2-(difluoromethyl)-5-(6-((4-(1-(oxetan-3-yl)pyrrolidin-2-yl)-1H-1,2,3-triazol-1-yl)methyl)pyridin-3-yl)-1,3,4-oxadiazole] | > 50000 nM | 189 fold | 263 nM |
| FC(F)c1nnc(-c2ccc(Cn3cc([C@@H]4CCCN4C4CC5(COC5)C4)nn3)nc2)o1 [Compound 4027, (S)-2-(6-((4-(1-(2-oxaspiro[3.3]heptan-6-yl)pyrrolidin-2-yl)-1H-1,2,3-triazol-1-yl)methyl)pyridin-3-yl)-5-(difluoromethyl)-1,3,4-oxadiazole] | > 50000 nM | 10 fold | 5000 nM |
| COC(=O)N1CCC[C@H]1c1cn(Cc2ccc(-c3nnc(C(F)F)o3)cn2)nn1 [Compound 4028, methyl (S)-2-(1-((5-(5-(difluoromethyl)-1,3,4-oxadiazol-2-yl)pyridin-2-yl)methyl)-1H-1,2,3-triazol-4-yl)pyrrolidin-1-carboxylate] | > 50000 nM | 238 fold | 210 nM |
| CC(=O)N1CCC[C@H]1c1cn(Cc2ccc(-c3nnc(C(F)F)o3)cn2)nn1 [Compound 4029, (S)-1-(2-(1-((5-(5-(difluoromethyl)-1,3,4-oxadiazol-2-yl)pyridin-2-yl)methyl)-1H-1,2,3-triazol-4-yl)pyrrolidin-1-yl)ethan-1-one] | > 50000 nM | 239 fold | 208 nM |
| CN1CCc2cc(-c3cn(Cc4ccc(-c5nnc(C(F)F)o5)cn4)nn3)ccc2C1 [Compound 4051, 2-(difluoromethyl)-5-(6-((4-(2-methyl-1,2,3,4-tetrahydroisoquinolin-6-yl)-1H-1,2,3-triazol-1-yl)methyl)pyridin-3-yl)-1,3,4-oxadiazole] | > 50000 nM | 1623 fold | 30.8 nM |
| CC(C)N1CCc2cc(-c3cn(Cc4ccc(-c5nnc(C(F)F)o5)cn4)nn3)ccc2C1 [Compound 4053, 2-(difluoromethyl)-5-(6-((4-(2-isopropyl-1,2,3,4-tetrahydroisoquinolin-6-yl)-1H-1,2,3-triazol-1-yl)methyl)pyridin-3-yl)-1,3,4-oxadiazole] | > 50000 nM | 880 fold | 56.8 nM |
| FC(F)c1nnc(-c2ccc(Cn3cc(-c4ccc5c(c4)CCN(C4CCC4)C5)nn3)nc2)o1 [Compound 4054, 2-(6-((4-(2-cyclobutyl-1,2,3,4-tetrahydroisoquinolin-6-yl)-1H-1,2,3-triazol-1-yl)methyl)pyridin-3-yl)-5-(difluoromethyl)-1,3,4-oxadiazole] | > 50000 nM | 1094 fold | 45.7 nM |
| FC(F)c1nnc(-c2ccc(Cn3cc(-c4ccc(N5CCOCC5)cc4)nn3)nc2)o1 [Compound 4105, 4-(4-(1-((5-(5-(difluoromethyl)-1,3,4-oxadiazol-2-yl)pyridin-2-yl)methyl)-1H-1,2,3-triazol-4-yl)phenyl)morpholin] | 34000 nM | 979 fold | 34.7 nM |
| CN1CCN(c2ccccc2-c2cn(Cc3ccc(-c4nnc(C(F)F)o4)cn3)nn2)CC1 [Compound 4106, 2-(difluoromethyl)-5-(6-((4-(2-(4-methylpiperazin-1-yl)phenyl)-1H-1,2,3-triazol-1-yl)methyl)pyridin-3-yl)-1,3,4-oxadiazole] | > 50000 nM | 877 fold | 57 nM |
| FC(F)c1nnc(-c2ccc(Cn3cc(-c4ccccc4)cn3)nc2)o1 [Compound 4133, 2-(difluoromethyl)-5-(6-((4-phenyl-1H-pyrazol-1-yl)methyl)pyridin-3-yl)-1,3,4-oxadiazole] | > 50000 nM | 444 fold | 113 nM |

Other lines, results leading:

| IC50 (human recombinant HDAC1) | HDAC6 selectivity (fold) (human recombinant HDAC6) | IC50 (human recombinant HDAC6) | Structure (SMILES) |
| --- | --- | --- | --- |
| > 50000 nM | 32 fold | 1560 nM | FC(F)c1nnc(-c2ccc(Cn3cc(-c4cccc5[nH]cc(CN6CCOCC6)c45)nn3)nc2)o1 [Compound 4023, 4-((4-(1-((5-(5-(difluoromethyl)-1,3,4-oxadiazol-2-yl)pyridin-2-yl)methyl)-1H-1,2,3-triazol-4-yl)-1H-indol-3-yl)methyl)morpholine] |
| > 50000 nM | 347 fold | 144 nM | FC(F)c1nnc(-c2ccc(Cn3cc(-c4cccc5cc[nH]c45)nn3)nc2)o1 [Compound 4071, 2-(6-((4-(1H-indol-7-yl)-1H-1,2,3-triazol-1-yl)methyl)pyridin-3-yl)-5-(difluoromethyl)-1,3,4-oxadiazole] |
| > 50000 nM | 602 fold | 83 nM | FC(F)c1nnc(-c2ccc(Cn3cc(-c4ccc5sccc5c4)nn3)nc2)o1 [Compound 4074, 2-(6-((4-(benzo[b]thiophen-5-yl)-1H-1,2,3-triazol-1-yl)methyl)pyridin-3-yl)-5-(difluoromethyl)-1,3,4-oxadiazole] |
| > 50000 nM | 591 fold | 84.5 nM | Fc1cc(-c2nnc(C(F)F)o2)ccc1Cn1cc(-c2ccc3cc[nH]c3c2)nn1 [Compound 4077, 2-(4-((4-(1H-indol-6-yl)-1H-1,2,3-triazol-1-yl)methyl)-3-fluorophenyl)-5-(difluoromethyl)-1,3,4-oxadiazole] |
| > 50000 nM | 1424 fold | 35.1 nM | FC(F)c1nnc(-c2ccc(Cn3cc(-c4cccc5[nH]ccc45)nn3)cc2)o1 [Compound 4078, 2-(4-((4-(1H-indol-4-yl)-1H-1,2,3-triazol-1-yl)methyl)phenyl)-5-(difluoromethyl)-1,3,4-oxadiazole] |
| > 50000 nM | 478 fold | 105 nM | FC(F)c1nnc(-c2ccc(Cn3cc(-c4cccc5cc[nH]c45)nn3)cc2)o1 [Compound 4081, 2-(4-((4-(1H-indol-7-yl)-1H-1,2,3-triazol-1-yl)methyl)phenyl)-5-(difluoromethyl)-1,3,4-oxadiazole] |
| > 50000 nM | 349 fold | 143 nM | Fc1cc(-c2nnc(C(F)F)o2)ccc1Cn1cc(-c2cccc3cc[nH]c23)nn1 [Compound 4082, 2-(4-((4-(1H-indol-7-yl)-1H-1,2,3-triazol-1-yl)methyl)-3-fluorophenyl)-5-(difluoromethyl)-1,3,4-oxadiazole] |
| 33000 nM | 500 fold | 66 nM | FC(F)c1nnc(-c2ccc(Cn3cc(-c4ccccc4N4CCOCC4)nn3)nc2)o1 [Compound 4104, 4-(2-(1-((5-(5-(difluoromethyl)-1,3,4-oxadiazol-2-yl)pyridin-2-yl)methyl)-1H-1,2,3-triazol-4-yl)phenyl)morpholin] |
| > 50000 nM | 896 fold | 55.8 nM | Fc1cccnc1-c1cn(Cc2ccc(-c3nnc(C(F)F)o3)cn2)nn1 [Compound 4178] |
| > 50000 nM | 672 fold | 74.4 nM | Fc1ccnc(-c2cn(Cc3ccc(-c4nnc(C(F)F)o4)cn3)nn2)c1 [Compound 4179, 2-(difluoromethyl)-5-(6-((4-(4-fluoropyridin-2-yl)-1H-1,2,3-triazol-1-yl)methyl)pyridin-3-yl)-1,3,4-oxadiazole] |
| > 50000 nM | 1506 fold | 33.2 nM | FC(F)c1nnc(-c2ccc(Cn3cc(-c4ccc(Br)cn4)nn3)nc2)o1 [Compound 4180, 2-(6-((4-(5-bromopyridin-2-yl)-1H-1,2,3-triazol-1-yl)methyl)pyridin-3-yl)-5-(difluoromethyl)-1,3,4-oxadiazole] |
